Test results: PubChem BioAssay (NCI)
Values joined by “and” are separate entries in the source; they are usually repeats but may differ in a detail not shown here. Equal values may be shown once.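 Step 1: Grow cells in 96-well plates. Step 2: Expose to compound for 48 hours at 5 concentrations. Step 3: Interpolate endpoints linearly; if unreached, use highest concentration. The concentration for 50% growth inhibition is given as GI50. TGI is the concentration that stops growth completely.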 Where a SMILES comes first, the peptide text is derived from it. The star is where a group is joined. Cbz = O=C(OCc1ccccc1)*

How the values were obtained:
Assay in all cases: NCI-60 cell line screen, 48 h
[1] = system: A549 NSCLC
[2] = system: BT-549 breast
[3] = system: EKVX NSCLC
[4] = system: HOP-92 NSCLC
[5] = system: M14 melanoma
[6] = system: MALME-3M melanoma
[7] = system: NCI/ADR-RES ovarian
[8] = system: RXF 393 renal
[9] = system: SNB-75 CNS
[10] = system: SW-620 colon
[11] = system: U251 CNS
[12] = system: SK-OV-3 ovarian
[13] = system: HS 578T breast

| Compound | TGI [1] | TGI [2] | TGI [3] | TGI [4] | TGI [5] | TGI [6] | TGI [7] | TGI [8] | TGI [9] | TGI [10] | TGI [11] | GI50 [1] | GI50 [4] | TGI [12] | GI50 [9] | TGI [13] |
| --- | --- | --- | --- | --- | --- | --- | --- | --- | --- | --- | --- | --- | --- | --- | --- | --- |
| CN(C)CCNC(=O)c1cc(-c2nccn2C)nc2ccccc12 | > 100 µM | > 100 µM | > 100 µM | > 100 µM | > 100 µM | > 100 µM | > 100 µM | > 100 µM | > 100 µM | > 100 µM | > 100 µM | – | – | – | – | – |
| COc1cc(C2c3cc4c(cc3[C@@H](NCCCN(C)C)[C@H]3COC(=O)C23)OCO4)cc(OC)c1O (stereo partly specified) | 0.712 µM | – | 1.58 µM and 1.29 µM | 0.368 µM and 1.85 µM | – | 1.07 µM and 1.44 µM | – | – | 4.21 µM and 6.84 µM | 1.18 µM and 4.27 µM | 2.15 µM and 1.9 µM | 0.03 µM | 0.0952 µM and 0.482 µM | 1.26 µM and 1.2 µM | 0.393 µM and 0.838 µM | – |
| COC(=O)CC1(O)C(/C=C/c2ccccc2)C(C(=O)OC)C(=O)C(C(=O)OC)C1C(=O)OC (stereo unspecified) | > 100 µM | – | > 100 µM | > 100 µM | > 100 µM | > 100 µM | > 100 µM | > 100 µM | – | > 100 µM | > 100 µM | – | – | > 100 µM | – | > 100 µM |
| CO/N=C(/C(=O)OC)c1ccccc1COc1cccc(C(F)(F)F)c1 | > 100 µM | – | 43.2 µM | > 100 µM | > 100 µM | 46.1 µM | > 100 µM | 98 µM | > 100 µM | > 100 µM | > 100 µM | – | – | > 100 µM | – | > 100 µM |
| C=CCCCCCC(O)C(O)C/C=C\C/C=C\CC (stereo unspecified) | > 18.8 µM | – | > 18.8 µM | > 18.8 µM | > 18.8 µM | > 18.8 µM | – | > 18.8 µM | > 18.8 µM | > 18.8 µM | > 18.8 µM | – | – | > 18.8 µM | – | – |
| CC1=NN(C(=O)c2ccccc2O)C(c2ccccc2Cl)C1C(=O)Nc1ccccc1 (stereo unspecified) | > 100 µM | – | > 100 µM | > 100 µM | 33.1 µM | 51.9 µM | > 49.5 µM | > 100 µM | – | > 100 µM | > 100 µM | – | – | > 100 µM | – | > 100 µM |
| CC(C)(c1ccc(OC#N)cc1)c1ccc(OC#N)cc1 | > 100 µM | – | > 100 µM | > 100 µM | > 100 µM | > 100 µM | – | > 100 µM | > 94.7 µM | > 100 µM | > 100 µM | – | – | > 100 µM | – | – |
| CCOC(=O)/C=C/c1c[nH]c(C(=O)OCC)c1 | > 100 µM | – | > 100 µM | > 100 µM | – | > 100 µM | > 100 µM | > 100 µM | > 100 µM | > 100 µM | > 100 µM | – | – | > 100 µM | – | – |
| Cc1cc(C)c(NS(=O)c2cccc(Cl)c2)c(C)c1 (stereo unspecified) | > 100 µM | > 100 µM | > 100 µM | > 100 µM | > 100 µM | > 100 µM | > 100 µM | > 100 µM | – | > 100 µM | > 100 µM | – | – | – | – | – |
| Nc1ccccc1OCc1cc(=O)c(OCc2ccccc2)co1 | > 100 µM | > 100 µM | > 100 µM | 36.4 µM | > 100 µM | > 100 µM | > 100 µM | – | – | > 100 µM | > 100 µM | – | – | 83.7 µM | – | – |
| O=S1c2ccccc2SCSc2ccccc21 | > 100 µM | – | – | > 100 µM | > 100 µM | > 100 µM | > 100 µM | > 100 µM | – | – | > 100 µM | – | – | > 100 µM | – | – |
| O=[N+]([O-])/C=C/COCc1cc2c(cc1Br)OCO2 | 38.5 µM | – | 48.8 µM | 65.3 µM | 29.9 µM | – | 41.6 µM | 30.9 µM | 31.7 µM | 39.4 µM | 30.7 µM | – | – | > 100 µM | – | 50.3 µM |
| CSC(=S)OC1C(CO[Si](C)(C)C(C)(C)C)OC2OC(C)(C)OC21 (stereo unspecified) | 78.6 µM | 67 µM | 60.1 µM | – | > 100 µM | 32.4 µM | 36.2 µM | 37.5 µM | > 100 µM | 31.9 µM | 31.8 µM | – | – | 41.5 µM | – | – |
| CC(C)(C)c1cc(C(=O)/C=C/c2ccc3c(c2)CCO3)cc(C(C)(C)C)c1O | 22.9 µM | > 63.6 µM | > 100 µM | > 100 µM | 5.25 µM | > 100 µM | 1.05 µM | 0.579 µM | – | > 100 µM | 3.17 µM | – | – | > 80.3 µM | – | > 29.5 µM |
| CCOC(=O)C(CC(=O)OC)NC(=O)C(CC(=O)OC)NC(=O)C(CC(=O)OC)NC(=O)C(CC(=O)OC)NC(=O)OCc1ccccc1 (stereo unspecified) (Cbz-D(OMe)D(OMe)D(OMe)D(OMe)-OEt; configuration not given here) | > 100 µM | > 100 µM | > 100 µM | > 100 µM | > 100 µM | > 100 µM | – | > 100 µM | > 100 µM | > 100 µM | > 100 µM | – | – | – | – | > 100 µM |
| O=CC1C[C@@H](N2C(=O)O[C@@H](c3ccccc3)[C@H]2c2ccccc2)[C@@H]1COCc1ccccc1 (stereo partly specified) | > 100 µM | 43.3 µM | 43.2 µM | 30.3 µM | 34.2 µM | 31.5 µM | 83.6 µM | 46.3 µM | – | 77.1 µM | 30.1 µM | – | – | – | – | 72.3 µM |
| CC(=O)OCC1OC(n2c(C)c(C(C)=O)c(-c3cccc4ccccc34)c(C#N)c2=S)C(OC(C)=O)C(OC(C)=O)C1OC(C)=O (stereo unspecified) | > 100 µM | – | > 100 µM | > 100 µM | > 100 µM | > 100 µM | > 100 µM | > 100 µM | > 100 µM | > 100 µM | > 100 µM | – | – | > 100 µM | – | – |
| N#CC(NNC(=O)c1ccccc1O)c1ccccc1 (stereo unspecified) | > 100 µM | – | – | > 100 µM | > 100 µM | > 100 µM | – | 61.8 µM | > 100 µM | > 100 µM | > 100 µM | – | – | > 100 µM | – | – |
| c1ccc2c3c([nH]c2c1)C1(CCCCC1)c1c([nH]c2ccccc12)C31CCCCC1 | > 100 µM | – | 61.7 µM | 46.6 µM | > 100 µM | 80.1 µM | – | 89.4 µM | 36.5 µM | > 100 µM | 97.6 µM | – | – | 49.6 µM | – | – |
| O=C(CC(C(=O)c1cccs1)c1ccsc1)c1ccco1 (stereo unspecified) | 42.9 µM | – | > 100 µM | > 100 µM | 43.5 µM | – | 43.6 µM | 49.7 µM | 84.4 µM | > 100 µM | 49.6 µM | – | – | > 100 µM | – | 47 µM |
